Assay results: paper PMC3605731 (Current pharmaceutical design, 2012)
Read-outs that look alike come from different tables or passages of the source.

Legend:
HIV-1 in GHOST cells = assay: Virus inhibition assay; assay type: cell-based; details: 48 hours
HIV-1 in HeLa cells = assay: Virus inhibition assay; assay type: cell-based; details: 48 hours
[1] = test system: HIV-1 infected human MT-2 cells; details: infected MT-2 human T-cell assay; cited from earlier work
HIV-1 RT Y181C [2] = details: relative to nevirapine; cited from earlier work
HIV-1 RT K103N [3] = details: FEP/MC, relative to efavirenz; cited from earlier work
HIV-1 RT Y188L [4] = details: relative to efavirenz; cited from earlier work
HIV-1 RT L100I [5] = details: FEP/MC, relative to nevirapine; cited from earlier work
HIV-1 RT Y181C [6] = details: FEP/MC, relative to nevirapine; cited from earlier work
HIV-1 RT K103N [7] = details: relative to efavirenz; cited from earlier work
HIV-1 RT L100I [8] = details: relative to nevirapine; cited from earlier work
HIV-1 RT Y188L [9] = details: FEP/MC, relative to efavirenz; cited from earlier work
HIV-1 protease [10] = details: cited from earlier work
HIV-1 protease [11] = details: cited from earlier work; remark: listed apart in the source

Compound: 2,6-dichlorobenzamido-1H-indole [Compound 5]
- HIV-1 inhibition (reduction in viral infectivity) (HIV-1 in GHOST cells; 0.2 μM): no appreciable inhibition
- HIV-1 inhibition (HIV-1 in GHOST cells; 10 μM): 30%
- HIV-1 inhibition (reduction in viral infectivity) (HIV-1 in HeLa cells; 0.2 μM): no appreciable inhibition
- HIV-1 inhibition (HIV-1 in HeLa cells; 10 μM): 30%
- viability (GHOST cells; 10 μM): 81%
- viability (GHOST cells; 50 μM): 46%

Compound: Cc1ccnc2c1NC(=O)c1cccnc1N2C1CC1 [nevirapine]
- EC50 [1]: 110 nM

Compound: Nc1noc(C2CN3CCC2C3)n1 (stereo not shown) [oxadiazole]
- EC50 [1]: inactive

Compound: Cc1cc(C#N)cc(C)c1Oc1nc(Nc2ccc(C#N)cc2)nc(N)c1Br [etravirine]
- ΔΔG (experimental), Y181C (HIV-1 RT Y181C [2]): -1.36 ± 0.28 kcal/mol
- ΔΔG (computed), K103N (HIV-1 RT K103N [3]): -2.4 kcal/mol
- ΔΔG (experimental), Y188L (HIV-1 RT Y188L [4]): -2.07 ± 0.23 kcal/mol
- ΔΔG (predicted), L100I (HIV-1 RT L100I [5]): -0.9 kcal/mol
- ΔΔG (predicted), Y181C (HIV-1 RT Y181C [6]): -2.6 kcal/mol
- ΔΔG (experimental), K103N (HIV-1 RT K103N [7]): -2.00 ± 0.40 kcal/mol
- ΔΔG (experimental), L100I (HIV-1 RT L100I [8]): -2.36 ± 0.42 kcal/mol
- ΔΔG (computed), Y188L (HIV-1 RT Y188L [9]): -2.4 kcal/mol

Compound: Ac-Thr-Ile-Nle-ψ [CH2-NH]-Nle-Gln-Arg-NH2 [MVT-101]
- decrease of binding, single Nle to Met mutation (HIV-1 protease [10]): 0.7 kcal/mol

Compound: Ac-Ser-Leu-Asn-(Phe-Hea-Pro)-Ile-Val-OMe [JG-365]
- ΔΔGbind (calculated), heptapeptide → hexapeptide (deletion of valine) (HIV-1 protease [10]; FEP/MD, averaged for R and S): 3.3 ± 1.1 kcal/mol
- ΔΔGbind (experimental), heptapeptide → hexapeptide (HIV-1 protease [11]; from Ki values for an equilibrium mixture of R and S configurations): 3.8 ± 1.3 kcal/mol

Compound: Ala-Ala-Phe[CH(OH)CH2]Gly-Val-Val-OMe [HEI]
- ΔΔGbind (computed), central hydroxyl S to R (HIV-1 protease [10]; FEP/MD): 3.37 ± 0.64 kcal/mol
- predicted enhancement of binding, Gly to Nle mutation (HIV-1 protease [10]): 1.7 kcal/mol
- ΔΔGbind (experimental), central hydroxyl S to R (HIV-1 protease [11]): 2.6 kcal/mol
